Tested on: winter wheat (Kazan 560 variety)
Assay: Field study: winter wheat seed treatment and spraying, yield and quality of the grain
Assay type: in vivo
Settings: for Field germination, % / Grain mass from the main ear / Number of grains in an ear / Viability, % / Yield, dt/ha: winter wheat
Description: Field studies were conducted for the BHMPA Mg-salt. The effect of treatment winter wheat seeds (Kazan 560 variety) with BHMPA Mg-salt solutions on the yield and quality of the grain was examined. The field experiment was conducted at a branch of a fallow rotation. The seeds were sowed on Sep. 1, 2015, in an area covering 1.7 hectares of the experimental field located at the experimental base of Tatarstan Research Institute of Agriculture. For comparison, the seeds were treated with the BHMPA Mg-salt solution and the known growth-regulator Melaphen at the same concentrations, optimum for Melaphen.
The experiment was conducted for the following variants: • 1. Control (no seed treatment); • 2. Seed treatment with the BHMPA Mg-salt solution at a 1·10^−7% concentration; • 3. Seed treatment with the BHMPA Mg-salt solution at a 1·10^−7% concentration+spraying with the BHMPA Mg-salt solution at a 1·10^−8% concentration upon vegetation during spring tillering and earing phases; • 4. Seed treatment with the growth regulator Melaphen at a 1·10^−7% concentration; • 5. Seed treatment with Melaphen at a 1·10^−7% concentration and spraying with Melaphen at a 1·10^−8% concentration upon vegetation during spring tillering and earing phases.
The seeds were treated with the experimental compounds together with a seed disinfectant at a rate of 10 ml/T. The vegetating plants were treated at a rate of 5 ml/ha. Identical field operations appropriate for that zone as well as plant protection measures against weeds and disease, were applied in all cases.
Results of field experiments with BHMPA Mg-salt as the main growth-regulating component of said pre-sowing seed treatment combined with additional treatment of winter wheat plants with other claimed BHMPA salts, are presented in Table XXXV.

[1] = seed treatment 1 · 10^−7% + spraying plants with the same substance 1 · 10^−8%

## O=P([O-])(CO)CO.O=P([O-])(CO)CO.[Mg+2] [Mg-salt, Magnesium BHMPA Salt]
field, seed treatment plus additional spraying during spring tillering and earing phases
  plant viability: up to 61%
field, seeds treated at 1·10^−7% and plants sprayed with 1·10^−8%, control 21.7 dt/ha
  yield of winter wheat: 30.7 dt/ha
Winter wheat Kazan 560, field, pre-sowing seed treatment, control 41%
  plant viability: up to 55%
Winter wheat Kazan 560, field, pre-sowing seed treatment, control 67%
  germination rate (field): up to 70%
Seed treatment 1 · 10^−7%
  Field germination, %: 70%
  Grain mass from the main ear: 1.1 g
  Number of grains in an ear: 31
  Viability, %: 55%
  Yield, dt/ha: 29.2 dt/ha
[1]
  Field germination, %: 70%
  Grain mass from the main ear: 1.1 g
  Number of grains in an ear: 32
  Viability, %: 61%
  Yield, dt/ha: 30.7 dt/ha
